# Data published in PMC11167047 (Cell Death Discovery, 2024).
# Columns and labels:
# Assay in all cases: kinome screen (33PanQinase)
# Format in all cases: biochemical
# MEK5 = target: T1, MEK5 (Homo sapiens, UniProt Q13163)
# T1 construct: purchased Reaction Biology Europe GmbH (formerly ProQinase)
# T1 sequence (Q13163 1-448): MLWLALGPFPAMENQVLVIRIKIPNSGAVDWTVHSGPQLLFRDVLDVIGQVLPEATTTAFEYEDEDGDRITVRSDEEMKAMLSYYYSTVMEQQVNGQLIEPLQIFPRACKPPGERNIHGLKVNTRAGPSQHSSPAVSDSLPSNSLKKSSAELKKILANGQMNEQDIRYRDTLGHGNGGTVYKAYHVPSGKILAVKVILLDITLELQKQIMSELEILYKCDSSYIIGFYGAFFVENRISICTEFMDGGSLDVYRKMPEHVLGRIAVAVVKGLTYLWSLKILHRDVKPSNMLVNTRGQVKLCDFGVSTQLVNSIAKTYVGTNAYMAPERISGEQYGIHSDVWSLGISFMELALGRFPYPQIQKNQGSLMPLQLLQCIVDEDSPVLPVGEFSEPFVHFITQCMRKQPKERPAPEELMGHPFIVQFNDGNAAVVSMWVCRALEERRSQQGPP
# Procedure: (§1) The Kinome Screening was performed by Reaction Biology Europe GmbH (http://reactionbiology.com; Freiburg i. Br., Germany).
# AuroraC = target: T2, AuroraC (Homo sapiens, UniProt Q9UQB9)
# T2 construct: purchased Reaction Biology Europe GmbH (formerly ProQinase)
# T2 sequence (Q9UQB9 1-309): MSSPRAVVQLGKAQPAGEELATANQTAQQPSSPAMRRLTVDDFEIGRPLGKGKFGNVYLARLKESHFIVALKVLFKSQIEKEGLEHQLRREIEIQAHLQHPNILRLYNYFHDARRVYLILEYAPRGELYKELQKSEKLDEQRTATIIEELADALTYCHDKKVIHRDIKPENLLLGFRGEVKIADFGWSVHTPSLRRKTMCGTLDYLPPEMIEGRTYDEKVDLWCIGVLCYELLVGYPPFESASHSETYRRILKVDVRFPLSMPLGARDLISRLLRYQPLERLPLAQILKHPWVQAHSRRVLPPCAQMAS
# Procedure: as §1
# VEGFR1 = target: T3, VEGFR1 (Homo sapiens, UniProt P17948)
# T3 construct: purchased Reaction Biology Europe GmbH (formerly ProQinase)
# T3 sequence (P17948 27-1338): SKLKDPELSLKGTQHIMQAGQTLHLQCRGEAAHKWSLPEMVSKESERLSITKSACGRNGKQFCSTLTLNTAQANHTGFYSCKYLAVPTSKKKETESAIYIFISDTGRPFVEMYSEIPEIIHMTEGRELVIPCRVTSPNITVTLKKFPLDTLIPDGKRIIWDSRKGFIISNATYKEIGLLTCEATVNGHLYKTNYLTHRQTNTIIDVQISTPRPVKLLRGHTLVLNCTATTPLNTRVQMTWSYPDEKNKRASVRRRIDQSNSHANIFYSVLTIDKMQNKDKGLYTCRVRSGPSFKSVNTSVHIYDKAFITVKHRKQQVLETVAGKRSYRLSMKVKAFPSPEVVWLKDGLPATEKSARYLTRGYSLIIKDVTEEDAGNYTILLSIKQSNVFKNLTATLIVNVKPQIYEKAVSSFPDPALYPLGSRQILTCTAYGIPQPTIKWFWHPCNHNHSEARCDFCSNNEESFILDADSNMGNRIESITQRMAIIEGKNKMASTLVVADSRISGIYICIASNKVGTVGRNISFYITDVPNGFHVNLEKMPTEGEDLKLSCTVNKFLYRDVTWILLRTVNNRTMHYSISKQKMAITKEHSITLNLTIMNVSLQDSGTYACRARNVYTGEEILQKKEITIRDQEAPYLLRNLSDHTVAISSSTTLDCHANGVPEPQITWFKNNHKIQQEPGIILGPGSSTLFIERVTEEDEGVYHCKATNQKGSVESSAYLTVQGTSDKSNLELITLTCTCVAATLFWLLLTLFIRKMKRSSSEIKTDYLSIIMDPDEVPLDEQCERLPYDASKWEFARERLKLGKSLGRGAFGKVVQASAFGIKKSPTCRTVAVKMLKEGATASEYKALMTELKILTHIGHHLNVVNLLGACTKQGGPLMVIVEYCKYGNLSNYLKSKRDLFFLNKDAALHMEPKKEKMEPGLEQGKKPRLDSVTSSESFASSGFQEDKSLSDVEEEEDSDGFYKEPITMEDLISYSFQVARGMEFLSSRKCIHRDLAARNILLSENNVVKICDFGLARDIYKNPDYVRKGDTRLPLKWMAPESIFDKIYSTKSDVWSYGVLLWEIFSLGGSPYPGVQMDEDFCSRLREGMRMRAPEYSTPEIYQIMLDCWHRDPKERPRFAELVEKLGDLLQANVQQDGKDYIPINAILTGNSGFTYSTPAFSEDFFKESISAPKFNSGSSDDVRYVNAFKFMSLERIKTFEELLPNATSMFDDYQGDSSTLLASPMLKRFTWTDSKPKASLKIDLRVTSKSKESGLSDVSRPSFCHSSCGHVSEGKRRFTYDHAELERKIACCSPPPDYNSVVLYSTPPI
# Procedure: as §1
# DYRK1B = target: T4, DYRK1B (Homo sapiens, UniProt Q9Y463)
# T4 construct: purchased Reaction Biology Europe GmbH (formerly ProQinase)
# T4 sequence (Q9Y463 whole entry): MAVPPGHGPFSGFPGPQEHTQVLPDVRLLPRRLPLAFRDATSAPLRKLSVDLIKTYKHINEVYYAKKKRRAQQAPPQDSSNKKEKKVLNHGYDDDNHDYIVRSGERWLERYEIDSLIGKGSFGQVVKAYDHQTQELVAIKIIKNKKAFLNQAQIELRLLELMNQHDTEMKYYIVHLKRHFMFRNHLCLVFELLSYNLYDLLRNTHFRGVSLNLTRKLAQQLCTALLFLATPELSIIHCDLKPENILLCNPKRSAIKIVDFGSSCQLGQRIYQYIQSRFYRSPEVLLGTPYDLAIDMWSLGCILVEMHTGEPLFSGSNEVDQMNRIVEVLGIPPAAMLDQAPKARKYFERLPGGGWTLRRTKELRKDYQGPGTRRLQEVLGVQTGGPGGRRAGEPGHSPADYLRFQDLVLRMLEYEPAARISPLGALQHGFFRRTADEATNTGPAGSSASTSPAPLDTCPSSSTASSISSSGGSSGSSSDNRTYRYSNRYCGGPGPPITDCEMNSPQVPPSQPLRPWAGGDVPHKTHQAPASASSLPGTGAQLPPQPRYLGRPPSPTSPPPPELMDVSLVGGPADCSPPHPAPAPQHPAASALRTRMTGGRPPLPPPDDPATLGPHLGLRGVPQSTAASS
# Procedure: as §1
# FER = target: T5, FER (Homo sapiens, UniProt P16591)
# T5 construct: purchased Reaction Biology Europe GmbH (formerly ProQinase)
# T5 sequence (P16591 whole entry): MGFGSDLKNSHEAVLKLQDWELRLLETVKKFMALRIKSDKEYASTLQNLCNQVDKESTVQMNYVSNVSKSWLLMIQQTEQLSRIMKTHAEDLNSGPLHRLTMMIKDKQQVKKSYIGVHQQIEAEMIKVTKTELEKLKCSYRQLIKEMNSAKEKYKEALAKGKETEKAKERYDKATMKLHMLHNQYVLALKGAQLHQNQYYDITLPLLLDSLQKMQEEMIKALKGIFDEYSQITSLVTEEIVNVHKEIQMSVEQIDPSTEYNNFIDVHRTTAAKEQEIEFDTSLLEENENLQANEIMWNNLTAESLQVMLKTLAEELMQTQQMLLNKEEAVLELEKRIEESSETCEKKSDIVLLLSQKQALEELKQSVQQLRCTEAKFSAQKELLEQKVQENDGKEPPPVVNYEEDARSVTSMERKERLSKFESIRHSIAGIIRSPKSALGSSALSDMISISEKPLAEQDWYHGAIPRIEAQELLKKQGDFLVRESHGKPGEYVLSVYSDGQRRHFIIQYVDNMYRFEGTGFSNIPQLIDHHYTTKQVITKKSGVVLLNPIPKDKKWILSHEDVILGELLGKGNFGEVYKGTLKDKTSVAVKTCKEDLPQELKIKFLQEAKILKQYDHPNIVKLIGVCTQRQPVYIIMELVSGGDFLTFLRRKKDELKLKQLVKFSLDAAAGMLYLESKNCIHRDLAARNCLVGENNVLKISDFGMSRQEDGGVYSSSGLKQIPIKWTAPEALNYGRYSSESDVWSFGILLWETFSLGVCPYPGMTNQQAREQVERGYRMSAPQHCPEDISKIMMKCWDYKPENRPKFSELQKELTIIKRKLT
# Procedure: as §1
# PKMYT1 = target: T6, PKMYT1 (Homo sapiens, UniProt Q99640)
# T6 construct: purchased Reaction Biology Europe GmbH (formerly ProQinase)
# T6 sequence (Q99640 1-499): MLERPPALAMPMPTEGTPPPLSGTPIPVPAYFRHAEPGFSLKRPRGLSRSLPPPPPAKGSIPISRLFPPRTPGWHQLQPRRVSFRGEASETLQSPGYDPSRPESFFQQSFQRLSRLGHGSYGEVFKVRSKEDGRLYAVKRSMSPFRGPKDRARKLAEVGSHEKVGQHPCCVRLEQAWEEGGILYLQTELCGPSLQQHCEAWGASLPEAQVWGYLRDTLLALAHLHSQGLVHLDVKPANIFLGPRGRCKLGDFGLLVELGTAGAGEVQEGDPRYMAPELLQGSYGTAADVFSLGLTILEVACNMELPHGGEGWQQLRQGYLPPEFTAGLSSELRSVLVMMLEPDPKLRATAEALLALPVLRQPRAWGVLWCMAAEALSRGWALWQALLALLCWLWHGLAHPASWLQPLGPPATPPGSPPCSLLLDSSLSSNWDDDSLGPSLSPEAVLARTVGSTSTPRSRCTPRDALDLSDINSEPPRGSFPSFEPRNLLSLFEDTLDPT
# Procedure: as §1
# MEKK2 = target: T7, MEKK2 (Homo sapiens, UniProt Q9Y2U5)
# T7 construct: purchased Reaction Biology Europe GmbH (formerly ProQinase)
# T7 sequence (Q9Y2U5 1-619): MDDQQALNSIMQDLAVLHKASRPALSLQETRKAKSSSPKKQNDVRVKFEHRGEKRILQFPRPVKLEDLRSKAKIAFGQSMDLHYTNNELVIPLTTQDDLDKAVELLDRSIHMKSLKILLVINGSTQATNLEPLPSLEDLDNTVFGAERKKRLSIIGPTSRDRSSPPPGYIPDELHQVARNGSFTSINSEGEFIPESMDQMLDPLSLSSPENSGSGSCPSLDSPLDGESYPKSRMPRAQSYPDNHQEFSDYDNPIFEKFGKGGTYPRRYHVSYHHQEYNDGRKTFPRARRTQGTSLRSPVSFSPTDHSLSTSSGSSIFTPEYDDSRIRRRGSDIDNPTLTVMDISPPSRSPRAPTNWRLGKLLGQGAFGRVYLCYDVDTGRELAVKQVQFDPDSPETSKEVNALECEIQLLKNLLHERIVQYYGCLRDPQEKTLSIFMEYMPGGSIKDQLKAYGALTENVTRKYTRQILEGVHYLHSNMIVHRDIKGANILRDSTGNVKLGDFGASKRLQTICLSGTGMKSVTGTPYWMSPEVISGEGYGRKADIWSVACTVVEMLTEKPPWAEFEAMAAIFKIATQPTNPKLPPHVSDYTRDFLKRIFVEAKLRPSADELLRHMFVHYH
# Procedure: as §1
# CHK1 = target: T8, CHK1 (Homo sapiens, UniProt O14757)
# T8 construct: purchased Reaction Biology Europe GmbH (formerly ProQinase)
# T8 sequence (O14757 1-476): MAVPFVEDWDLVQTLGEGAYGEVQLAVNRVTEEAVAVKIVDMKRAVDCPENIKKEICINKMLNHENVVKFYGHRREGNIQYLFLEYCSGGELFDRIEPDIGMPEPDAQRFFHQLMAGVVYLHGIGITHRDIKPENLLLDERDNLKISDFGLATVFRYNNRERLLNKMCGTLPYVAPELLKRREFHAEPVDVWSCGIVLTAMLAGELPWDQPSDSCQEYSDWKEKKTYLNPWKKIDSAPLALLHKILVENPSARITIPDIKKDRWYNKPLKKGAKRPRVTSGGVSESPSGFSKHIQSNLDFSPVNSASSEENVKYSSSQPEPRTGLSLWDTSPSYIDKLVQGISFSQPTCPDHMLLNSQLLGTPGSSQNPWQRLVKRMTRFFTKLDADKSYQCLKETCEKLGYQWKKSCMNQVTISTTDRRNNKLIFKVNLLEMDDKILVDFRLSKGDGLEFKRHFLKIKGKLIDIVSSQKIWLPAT
# Procedure: as §1
# MINK1 = target: T9, MINK1 (Homo sapiens, UniProt Q8N4C8)
# T9 construct: purchased Reaction Biology Europe GmbH (formerly ProQinase)
# T9 sequence (Q8N4C8 whole entry): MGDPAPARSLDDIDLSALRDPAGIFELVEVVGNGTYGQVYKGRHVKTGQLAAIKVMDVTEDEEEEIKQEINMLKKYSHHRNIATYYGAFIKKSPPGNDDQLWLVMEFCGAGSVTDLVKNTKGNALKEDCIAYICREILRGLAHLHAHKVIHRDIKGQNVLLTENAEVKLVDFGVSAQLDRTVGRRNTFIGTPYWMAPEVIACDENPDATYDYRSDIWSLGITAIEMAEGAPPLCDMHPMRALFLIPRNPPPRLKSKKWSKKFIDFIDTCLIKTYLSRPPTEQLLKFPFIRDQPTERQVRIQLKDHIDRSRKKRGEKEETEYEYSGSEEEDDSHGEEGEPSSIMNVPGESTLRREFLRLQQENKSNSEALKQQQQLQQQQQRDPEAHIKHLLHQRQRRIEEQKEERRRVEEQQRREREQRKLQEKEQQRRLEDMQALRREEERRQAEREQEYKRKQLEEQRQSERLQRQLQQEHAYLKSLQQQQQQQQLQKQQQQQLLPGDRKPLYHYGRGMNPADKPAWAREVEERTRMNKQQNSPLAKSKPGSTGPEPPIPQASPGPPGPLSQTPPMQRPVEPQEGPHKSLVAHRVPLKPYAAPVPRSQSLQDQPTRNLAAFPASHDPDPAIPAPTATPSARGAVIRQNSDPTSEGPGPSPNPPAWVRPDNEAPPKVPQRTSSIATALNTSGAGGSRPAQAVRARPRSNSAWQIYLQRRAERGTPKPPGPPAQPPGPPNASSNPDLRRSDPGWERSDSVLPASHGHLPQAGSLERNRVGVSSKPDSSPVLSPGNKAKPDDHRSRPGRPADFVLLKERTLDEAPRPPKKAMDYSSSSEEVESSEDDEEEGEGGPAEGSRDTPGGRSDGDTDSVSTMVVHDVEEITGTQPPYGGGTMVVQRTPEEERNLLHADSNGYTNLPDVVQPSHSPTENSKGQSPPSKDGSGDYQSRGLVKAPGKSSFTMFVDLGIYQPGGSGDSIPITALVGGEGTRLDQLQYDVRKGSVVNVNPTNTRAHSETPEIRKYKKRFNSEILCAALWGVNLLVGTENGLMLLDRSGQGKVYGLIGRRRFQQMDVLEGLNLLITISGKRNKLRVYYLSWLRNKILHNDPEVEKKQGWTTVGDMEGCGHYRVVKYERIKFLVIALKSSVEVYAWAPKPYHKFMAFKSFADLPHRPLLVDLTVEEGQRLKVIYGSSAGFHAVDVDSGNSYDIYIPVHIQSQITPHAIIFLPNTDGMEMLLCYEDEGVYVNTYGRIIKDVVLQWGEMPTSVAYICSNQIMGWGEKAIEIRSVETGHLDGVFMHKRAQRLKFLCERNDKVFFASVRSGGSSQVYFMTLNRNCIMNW
# Procedure: as §1
# GSK3α = target: T10, GSK3α (Homo sapiens, UniProt P49840)
# T10 construct: purchased Reaction Biology Europe GmbH (formerly ProQinase)
# T10 sequence (P49840 whole entry): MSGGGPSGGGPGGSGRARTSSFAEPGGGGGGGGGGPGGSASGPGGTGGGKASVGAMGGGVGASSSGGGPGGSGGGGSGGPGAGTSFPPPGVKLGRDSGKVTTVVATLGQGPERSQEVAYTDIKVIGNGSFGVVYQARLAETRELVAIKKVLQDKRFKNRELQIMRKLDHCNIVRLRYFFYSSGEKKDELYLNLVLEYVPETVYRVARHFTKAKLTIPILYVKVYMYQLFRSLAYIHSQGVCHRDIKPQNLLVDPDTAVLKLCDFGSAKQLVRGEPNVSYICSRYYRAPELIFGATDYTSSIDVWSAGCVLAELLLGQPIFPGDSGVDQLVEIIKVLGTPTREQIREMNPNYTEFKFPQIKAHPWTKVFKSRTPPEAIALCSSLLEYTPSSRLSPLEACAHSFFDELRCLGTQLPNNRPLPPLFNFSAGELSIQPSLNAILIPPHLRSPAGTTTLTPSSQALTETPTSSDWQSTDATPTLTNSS
# Procedure: as §1
SMILES,residual kinase activity (MEK5; 0.3 µM),residual kinase activity (AuroraC; 0.3 µM),residual kinase activity (VEGFR1; 0.3 µM),residual kinase activity (DYRK1B; 0.3 µM),residual kinase activity (FER; 0.3 µM),residual kinase activity (PKMYT1; 0.3 µM),residual kinase activity (MEKK2; 0.3 µM),residual kinase activity (CHK1; 0.3 µM),residual kinase activity (MINK1; 0.3 µM),residual kinase activity (GSK3α; 0.3 µM),other results
COc1ccnc2[nH]cc(-c3cc(N)nc(N)c3)c12 [meriolin 16],31 % of control,95 % of control,89 % of control,0 % of control,58 % of control,23 % of control,91 % of control,87 % of control,20 % of control,93 % of control,residual kinase activity (MEK5; 0.03 µM): 35 % of control; residual kinase activity (AuroraC; 0.03 µM): 104 % of control; residual kinase activity (VEGFR1; 0.03 µM): 110 % of control; residual kinase activity (DYRK1B; 0.03 µM): 8 % of control; residual kinase activity (FER; 0.03 µM): 63 % of control; residual kinase activity (PKMYT1; 0.03 µM): 32 % of control; residual kinase activity (MEKK2; 0.03 µM): 95 % of control; residual kinase activity (CHK1; 0.03 µM): 96 % of control; residual kinase activity (MINK1; 0.03 µM): 75 % of control; residual kinase activity (GSK3α; 0.03 µM): 99 % of control
c1ccc(CNc2cc(-c3c[nH]c4ncccc34)ccn2)cc1 [meriolin 36],30 % of control,76 % of control,83 % of control,7 % of control,66 % of control,39 % of control,66 % of control,76 % of control,2 % of control,41 % of control,residual kinase activity (MEK5; 3 µM): 12 % of control; residual kinase activity (AuroraC; 3 µM): 41 % of control; residual kinase activity (VEGFR1; 3 µM): 43 % of control; residual kinase activity (DYRK1B; 3 µM): 0 % of control; residual kinase activity (FER; 3 µM): 22 % of control; residual kinase activity (PKMYT1; 3 µM): 13 % of control; residual kinase activity (MEKK2; 3 µM): 18 % of control; residual kinase activity (CHK1; 3 µM): 40 % of control; residual kinase activity (MINK1; 3 µM): 0 % of control; residual kinase activity (GSK3α; 3 µM): 7 % of control
